Data: ChEMBL document CHEMBL5724914, “Linking interpersonal differences in gut microbiota composition and drug biotransformation activity” (2024)

What was measured:
[1] = (§1) The drug is tested on Z-029 corresponding to rat gut metagenome with ENA study accession number: PRJEB37062 and ENA sample accession number: ERS12561828 for biotransformation under anaerobic condition. The drug concentrations were measured over 9 timepoints collected between 0 and 24 hours of incubation by liquid-chromatography-coupled mass spectrometry (LC–MS); conditions: 2 µM
[2] = as §1, with “on Z-024” for “on Z-029”, “to pig” for “to rat”, “number: ERS12561823” for “number: ERS12561828”; conditions: 2 µM
[3] = as §1, with “Z-023” for “Z-029”, “to” for “to rat gut”, “ERS12561822” for “ERS12561828”; conditions: 2 µM
[4] = as §1, with “on Z-020” for “on Z-029”, “to rabbit” for “to rat”, “number: ERS12561819” for “number: ERS12561828”; conditions: 2 µM
[5] = as §1, with “on Z-016” for “on Z-029”, “to mouse” for “to rat”, “number: ERS12561815” for “number: ERS12561828”; conditions: 2 µM
[6] = as §1, with “on Z-013” for “on Z-029”, “to rabbit” for “to rat”, “number: ERS12561813” for “number: ERS12561828”; conditions: 2 µM
[7] = as §1, with “Z-012” for “Z-029”, “to” for “to rat gut”, “ERS12561812” for “ERS12561828”; conditions: 2 µM
[8] = as §1, with “on Z-009” for “on Z-029”, “to pig” for “to rat”, “number: ERS12561809” for “number: ERS12561828”; conditions: 2 µM
[9] = as §1, with “Z-008” for “Z-029”, “to” for “to rat gut”, “ERS12561808” for “ERS12561828”; conditions: 2 µM
[10] = as §1, with “on Z-006” for “on Z-029”, “to mouse” for “to rat”, “number: ERS12561806” for “number: ERS12561828”; conditions: 2 µM
[11] = as §1, with “Z-005” for “Z-029”, “to” for “to rat gut”, “ERS12561805” for “ERS12561828”; conditions: 2 µM
[12] = as §1, with “on WLS-038” for “on Z-029”, “to human” for “to rat”, “number: ERS12561745” for “number: ERS12561828”; conditions: 2 µM
[13] = as §1, with “on WLS-006” for “on Z-029”, “to human” for “to rat”, “number: ERS12561741” for “number: ERS12561828”; conditions: 2 µM
[14] = human gut metagenome, 24 h, 2 µM
[15] = human gut metagenome, 24 h, 2 µM; remark: listed apart in the source
[16] = human gut metagenome, 24 h, 2 µM; remark: listed apart in the source
[17] = human gut metagenome, 24 h, 2 µM; remark: listed apart in the source
[18] = human gut metagenome, 24 h, 2 µM; remark: listed apart in the source
[19] = human gut metagenome, 24 h, 2 µM; remark: listed apart in the source
[20] = human gut metagenome, 24 h, 2 µM; remark: listed apart in the source
Further: call rule not given here.

Row | Structure (SMILES) | Bacterial Biotransformation [1] | Bacterial Biotransformation [2] | Bacterial Biotransformation [3] | Bacterial Biotransformation [4] | Bacterial Biotransformation [5] | Bacterial Biotransformation [6] | Bacterial Biotransformation [7] | Bacterial Biotransformation [8] | Bacterial Biotransformation [9] | Bacterial Biotransformation [10] | Bacterial Biotransformation [11] | Bacterial Biotransformation [12] | Bacterial Biotransformation [13] | Bacterial Biotransformation [14] | Bacterial Biotransformation [15] | Bacterial Biotransformation [16] | Bacterial Biotransformation [17] | Bacterial Biotransformation [18] | Bacterial Biotransformation [19] | Bacterial Biotransformation [20]
1 | OCCOCCN1CCN(C2=Nc3ccccc3Sc3ccccc32)CC1 [QUETIAPINE] | Compound NOT metabolized | Compound metabolized | Compound NOT metabolized | Compound NOT metabolized | Compound NOT metabolized | Compound NOT metabolized | Compound NOT metabolized | Compound NOT metabolized | Compound NOT metabolized | Compound NOT metabolized | Compound NOT metabolized | Compound NOT metabolized | Compound NOT metabolized | Compound NOT metabolized | Compound metabolized | Compound NOT metabolized | Compound metabolized | Compound metabolized | Compound metabolized | Compound NOT metabolized
2 | Nc1nc2ccc(OC(F)(F)F)cc2s1 [RILUZOLE] | Compound metabolized | Compound metabolized | Compound metabolized | Compound metabolized | Compound NOT metabolized | Compound NOT metabolized | Compound metabolized | Compound metabolized | Compound metabolized | Compound NOT metabolized | Compound metabolized | Compound metabolized | Compound metabolized | Compound NOT metabolized | Compound metabolized | Compound metabolized | Compound metabolized | Compound metabolized | Compound metabolized | Compound NOT metabolized
3 | CC(C)c1nc(CN(C)C(=O)N[C@H](C(=O)N[C@@H](Cc2ccccc2)C[C@H](O)[C@H](Cc2ccccc2)NC(=O)OCc2cncs2)C(C)C)cs1 [RITONAVIR] | Compound NOT metabolized | Compound NOT metabolized | Compound metabolized | Compound metabolized | Compound metabolized | Compound metabolized | Compound metabolized | Compound metabolized | Compound metabolized | Compound metabolized | Compound metabolized | Compound metabolized | Compound metabolized | Compound NOT metabolized | Compound metabolized | Compound metabolized | Compound metabolized | Compound metabolized | Compound metabolized | Compound NOT metabolized
4 | CC(C)NCC(O)c1ccc(NS(C)(=O)=O)cc1 (stereo not given) [SOTALOL] | Compound NOT metabolized | Compound NOT metabolized | Compound NOT metabolized | Compound NOT metabolized | Compound NOT metabolized | Compound NOT metabolized | Compound NOT metabolized | Compound NOT metabolized | Compound NOT metabolized | Compound NOT metabolized | Compound NOT metabolized | Compound NOT metabolized | Compound NOT metabolized | Compound NOT metabolized | Compound NOT metabolized | Compound NOT metabolized | Compound NOT metabolized | Compound NOT metabolized | Compound NOT metabolized | Compound NOT metabolized

Continued, values first:

Row | Bacterial Biotransformation [1] | Bacterial Biotransformation [2] | Bacterial Biotransformation [3] | Bacterial Biotransformation [4] | Bacterial Biotransformation [5] | Bacterial Biotransformation [6] | Bacterial Biotransformation [7] | Bacterial Biotransformation [8] | Bacterial Biotransformation [9] | Bacterial Biotransformation [10] | Bacterial Biotransformation [11] | Bacterial Biotransformation [12] | Bacterial Biotransformation [13] | Bacterial Biotransformation [14] | Bacterial Biotransformation [15] | Bacterial Biotransformation [16] | Bacterial Biotransformation [17] | Bacterial Biotransformation [18] | Bacterial Biotransformation [19] | Bacterial Biotransformation [20] | Structure (SMILES)
5 | Compound NOT metabolized | Compound NOT metabolized | Compound NOT metabolized | Compound NOT metabolized | Compound NOT metabolized | Compound NOT metabolized | Compound NOT metabolized | Compound NOT metabolized | Compound NOT metabolized | Compound NOT metabolized | Compound NOT metabolized | Compound NOT metabolized | Compound metabolized | Compound NOT metabolized | Compound metabolized | Compound NOT metabolized | Compound metabolized | Compound metabolized | Compound metabolized | Compound NOT metabolized | CS(=O)(=O)O.OC(CCN1CCCCC1)(c1ccccc1)c1ccccc1 [PRIDINOL METHANESULFONATE]
6 | Compound NOT metabolized | Compound metabolized | Compound metabolized | Compound NOT metabolized | Compound NOT metabolized | Compound NOT metabolized | Compound NOT metabolized | Compound NOT metabolized | Compound NOT metabolized | Compound NOT metabolized | Compound NOT metabolized | Compound metabolized | Compound metabolized | Compound NOT metabolized | Compound NOT metabolized | Compound NOT metabolized | Compound metabolized | Compound metabolized | Compound metabolized | Compound NOT metabolized | CC(CN1c2ccccc2Sc2ccccc21)N(C)C (stereo not given) [PROMETHAZINE]
7 | Compound NOT metabolized | Compound metabolized | Compound metabolized | Compound metabolized | Compound metabolized | Compound metabolized | Compound metabolized | Compound metabolized | Compound metabolized | Compound metabolized | Compound NOT metabolized | Compound metabolized | Compound metabolized | Compound metabolized | Compound NOT metabolized | Compound metabolized | Compound metabolized | Compound metabolized | Compound metabolized | Compound metabolized | CCC(=O)NCC[C@@H]1CCc2ccc3c(c21)CCO3 [RAMELTEON]
8 | Compound metabolized | Compound NOT metabolized | Compound metabolized | Compound metabolized | Compound metabolized | Compound NOT metabolized | Compound metabolized | Compound metabolized | Compound NOT metabolized | Compound metabolized | Compound NOT metabolized | Compound NOT metabolized | Compound metabolized | Compound NOT metabolized | Compound metabolized | Compound NOT metabolized | Compound metabolized | Compound metabolized | Compound NOT metabolized | Compound metabolized | CNC(=C[N+](=O)[O-])NCCSCc1ccc(CN(C)C)o1 [RANITIDINE]
